Literature values, collected in US20040019115A1, “Use of milnacipran for the treatment of tension-type headache” (priority 2002, published 2004).

Settings: patients with chronic tension-type headache, prophylactic treatment

CN(C)CCC=C1c2ccccc2CCc2ccccc21 [Amitriptyline]
reduction of headache: 30%
